Reference: patent publication US4598077A, “Amidine derivatives and cardiotonic compositions” (Torii & Co. Ltd., priority 1983, dated 1986)
Structures can show the parent of a compound that is named as a salt. Where two headings read alike, the source gives them in different places.

Experiments:
[1] = system: anesthetized open-chest dogs; test: Cardiovascular effect in anesthetized open-chest dogs (Table 2); format: in vivo, Mongrel dogs; details: femoral vein; for change in vivo at 0.03 mg/kg / change in vivo at 0.1 mg/kg / change in vivo at 0.3 mg/kg: Canis lupus familiaris, iv
Method: Mongrel dogs of either sex weighing 9-15 kg were anesthetized with sodium pentobarbital (30 mg/kg, i.v.). The heart was exposed by thoractomy by the left fifth intercostal incision under artificial respiration. Aortic flow was measured by the probe of electromagnetic flowmeter placed around the ascending aorta. Myocardial contractility was measured by the maximal rate of rise of left ventricular pressure which was recorded from a needle inserted into the ventricular cavity. The systemic blood pressure was measured with a pressure transducer by means of a polyethylene cannular inserted into the femoral artery. The heart rate was recorded by a cardiotrachometer triggered by R wave of electrocargiogram (Lead II). Test compounds were dissolved in vehicle solution and were injected into the femoral vein. The effects of each compound on the cardiac contractility and aortic flow were evaluated as a percentage change in values determined before and after administration of the compound. In Table 2 are shown such changes in terms of the percentage increase after administration.

right atrium preparation = test: Isolated, blood-perfused right atrium preparation, sinus rate (Table 1); set-up: species or system Mongrel dogs; details: Canis lupus familiaris, close-arterial injection, read-out: Right atrium preparation; for activation at 0.03 mg: dose 30 μg; for activation at 0.03 mg / activation at 0.1 mg / activation at 0.3 mg: % increase in sinus rate; for activation at 0.1 mg / inhibition at 0.1 mg: dose 100 μg
Method: Mongrel dogs of either sex weighting 7.5-10 kg were anesthetized with sodium pentobarbital (30 mg/kg, i.v.). Each animal was given an intravenous dose of sodium heparin (500 units/kg), thereafter, the heart was removed and placed in cold Tyrode solution. The isolated and cross-circulated right atrium and papillary muscle preparations were arranged for perfusion from a donor dog as follows. The donor dog was also anesthetized with sodium pentobarbital (30 mg/kg, i.v.); heparin (500 units/kg) was given intravenously immediately before the perfusion began. (b) The isolated, blood-perfused right atrium preparation. The sinus node artery was cannulated at its origin in the right coronary artery. A right atrial electrogram was obtained from bipolar electrodes which were placed in close proximity to the sinoatrial node. The sinus rate was recorded by a cardiotachometer triggered by the right atrial electrogram. The details of the bloodperfused right atrium preparation have been described by Chiba et al. (Tohoku J. exp. Med., 107, 101-102 (1972) and Kubota and Hashimoto (Naunyn-Schmiedeberg's Arch. Pharmacol., 278, 135-150 (1973)). Each preparation was perfused with the arterial blood from the carotid artery of the donor dog at a constant perfusion pressure of 100 mmHg by means of a peristaltic pump. The venous effluent from the preparations was collected in a reservoir and returned to the donor dog through the jugular vein. Test compounds used in these experiments were dissolved in vehicle solution and were injected closearterially to the preparations. The effects of each compound on the developed tension and sinuo rate were evaluated as a percentage change in values determined before and after administration of the compound. In Table 1 are shown such changes in terms of the percentage increase after administration.

[2] = system: papillary muscle preparation; test: Isolated, blood-perfused papillary muscle preparation, developed tension (Table 1); set-up: species or system Mongrel dogs; details: Canis lupus familiaris, close-arterial injection, read-out: Papillary muscle preparation, % increase in developed tension; for activation at 0.03 mg: dose 30 μg; for activation at 0.1 mg: dose 100 μg; for activation at 0.3 mg: dose 300 μg
Method: Mongrel dogs of either sex weighting 7.5-10 kg were anesthetized with sodium pentobarbital (30 mg/kg, i.v.). Each animal was given an intravenous dose of sodium heparin (500 units/kg), thereafter, the heart was removed and placed in cold Tyrode solution. The isolated and cross-circulated right atrium and papillary muscle preparations were arranged for perfusion from a donor dog as follows. The donor dog was also anesthetized with sodium pentobarbital (30 mg/kg, i.v.); heparin (500 units/kg) was given intravenously immediately before the perfusion began. (a) The isolated, blood-perfused papillary muscle preparation. The anterior septal artery was dissected and cannulated with polyethylene tubing. The tendinous end of the papillary muscle was connected to a strain-gauge transducer by a fine silk thread and the muscles were under about 2 g of resting tension. The papillary muscle preparation was electrically driven at a constant frequency of 120/min with rectangular pulses of 1-3 V and 5 msec duration. The preparation of the blood-perfused papillary muscle has been described in detail by Endoh and Hashimoto Am. J. Physiol, 218, 1459-1463 (1970). Each preparation was perfused with the arterial blood from the carotid artery of the donor dog at a constant perfusion pressure of 100 mmHg by means of a peristaltic pump. The venous effluent from the preparations was collected in a reservoir and returned to the donor dog through the jugular vein. Test compounds used in these experiments were dissolved in vehicle solution and were injected closearterially to the preparations. The effects of each compound on the developed tension and sinuo rate were evaluated as a percentage change in values determined before and after administration of the compound. In Table 1 are shown such changes in terms of the percentage increase after administration.

Toxicity (LD50) = details: in vivo, iv; mouse; I.V.
[3] = 0.03 mg/kg, read-out: Increase in aortic flow (%)
[4] = 0.03 mg/kg, read-out: Increase in cardiac contractility (%)
[5] = read-out: Increase in aortic flow (%)
[6] = read-out: Increase in cardiac contractility (%)
[7] = 0.3 mg/kg, read-out: Increase in aortic flow (%)
[8] = 0.3 mg/kg, read-out: Increase in cardiac contractility (%)
[9] = % decrease in sinus rate (in parentheses)

SMILES | change in vivo at 0.03 mg/kg [1, 3] [%] | change in vivo at 0.03 mg/kg [1, 4] [%] | change in vivo at 0.1 mg/kg [1, 5] [%] | change in vivo at 0.1 mg/kg [1, 6] [%] | activation at 0.03 mg (right atrium preparation) [%] | activation at 0.1 mg (right atrium preparation) [%] | activation at 0.03 mg [2] [%] | activation at 0.1 mg [2] [%] | LD50 (Toxicity (LD50)) [mg/kg] | change in vivo at 0.3 mg/kg [1, 7] [%] | change in vivo at 0.3 mg/kg [1, 8] [%] | inhibition at 0.1 mg (right atrium preparation; [9]) [%] | inhibition at 0.3 mg (right atrium preparation; dose 300 μg, % decrease in sinus rate (in parentheses)) [%] | activation at 0.3 mg (right atrium preparation; dose 300 μg) [%] | activation at 0.3 mg [2] [%] | % decrease in aortic flow (in parentheses) ([1]; 0.3 mg/kg) [%] | % decrease in cardiac contractility (in parentheses) ([1]; 0.3 mg/kg) [%] | % decrease in aortic flow (in parentheses) ([1]; 0.03 mg/kg) [%] | % decrease in cardiac contractility (in parentheses) ([1]; 0.03 mg/kg) [%]
Cl.Cl.N=C(N)c1ccc(CCc2ccc(CN)cc2)cc1 [Compound 2, 4-[2-(4-Aminomethylphenyl)ethyl]benzamidine dihydrochloride] | 5 | 7.1 | 16.1 | 25 | 10.7 | 21.8 | 63.8 | 104 | 40 | – | – | – | – | – | – | – | – | – | –
Cl.Cl.N=C(NCCc1ccccc1)c1ccc(CCc2ccc(CN)cc2)cc1 [Compound 5, 4-[2-(4-Aminomethylphenyl)ethyl]-N-(2-phenylethyl)benzamidine dihydrochloride] | – | – | 5 | 12.9 | 16 | 17.7 | 33.3 | 53.5 | 57.7 | 19.2 | 38.9 | – | – | – | – | – | – | – | –
CC(=O)O.CC(=O)O.N=C(N)c1ccc(OCc2ccc(CN)cc2)cc1 [Compound 8, 4-(4-aminomethylbenzyloxy)benzamidine diacetate] | – | – | 6.1 | 0 | – | 2.2 | – | 20.7 | 57.7 | 9.5 | 16.7 | 7.7 | 9.7 | 7.5 | 44.8 | – | – | – | –
CNC(=N)c1ccc(CCc2ccc(CN)cc2[N+](=O)[O-])cc1 [Compound 13, N-Methyl-4-[2-(4-aminomethyl-2-nitrophenyl)ethyl]benzamidine dihydrochloride] | 5.7 | 29 | 12.1 | 66.7 | 32.3 | 35.9 | 64.2 | 95.5 | – | – | – | – | – | – | – | – | – | – | –
Br.Br.CN=C(NC)c1ccc(CCc2ccc(CN)cc2)cc1 [Compound 14, N,N'-Dimethyl-4-[2-(4-aminomethylphenyl)ethyl]benzamidine dihydrobromide] | – | – | 8.7 | 30 | 28.9 | 31.8 | 59 | 100 | – | 32.7 | 47.5 | – | – | – | – | -16.3 | -6.8 | – | –
NCc1ccc(CCc2ccc(C3=NCCN3)cc2)cc1 [Compound 15, 2-{4-[2-(4-Aminomethylphenyl)ethyl]phenyl}imidazoline dihydrochloride] | – | – | 5.9 | 25 | 22.8 | 34.7 | 49.2 | 100 | – | 10 | 56.5 | – | – | – | – | – | – | – | –
CNC(=N)c1ccc(CCc2ccc(CN)cc2)c([N+](=O)[O-])c1.Cl.Cl [Compound 16, 4-[2-(4-Aminomethylphenyl)ethyl]-N-methyl-3-nitrobenzamidine dihydrochloride] | – | – | 9 | 32 | 21.9 | 29.7 | 26 | 70.2 | – | 16.3 | 69.4 | – | – | – | – | -7.0 | – | – | –
CN=C(NC)c1ccc(CCc2ccc(CN)cc2OC)cc1 [Compound 17, 4-[2-(4-Aminomethyl-2-methoxyphenyl)ethyl]-N,N'-dimethylbenzamidine dihydrochloride] | 4.7 | 13.5 | 17 | 76.5 | – | 14.3 | – | 76.5 | – | – | – | – | – | 20.3 | 110 | – | – | – | –
CN=C(NC)c1ccc(CCc2ccc(CN)cc2[N+](=O)[O-])cc1.Cl.Cl [Compound 18, 4-[2-(4-Aminomethyl-2-nitrophenyl)ethyl]-N,N'-dimethylbenzamidine dihydrochloride] | – | – | 14.3 | 59.3 | – | 14 | – | 64 | – | 23.7 | 155 | 1.8 | – | 34.8 | 86.5 | -5.3 | – | – | –
COc1cc(CN)ccc1CCc1ccc(C(=N)NCCc2ccccn2)cc1.Cl.Cl.Cl [Compound 19, 4-[2-(4-Aminomethyl-2-methoxyphenyl)ethyl]-N-[2-(2-pyridyl)ethyl]benzamidine trihydrochloride] | – | – | 9.2 | 20 | – | 21.9 | – | 72.4 | – | 11.9 | 129 | – | – | 35.8 | 108 | -1.2 | -7.1 | – | –
COc1cc(CN)ccc1CCc1ccc(C2=NCCN2)cc1 [Compound 20, 2-{4-[2-(4-Aminomethyl-2-methoxyphenyl)ethyl]phenyl}imidazoline dihydrochloride] | 7.9 | 78.6 | – | – | – | 26.8 | – | 72.2 | – | – | – | – | – | 45.7 | 104 | – | – | -1.1 | -7.8
